Where two headings read alike, the source gives them in different places.
Legend:
[1] = system: PDGF-induced 3T3 cell proliferation; test: PDGF-induced 3T3 cell proliferation; assay type: cell-based; conditions: compared with anti-PDGF antibody (Upstate/Cell Signaling Solutions)
[2] = system: PDGF AB and BB; test: PDGF binding (Kd); parameters: species or system human
[3] = rabbit, in vivo
[4] = in vivo, iv
[5] = biological target: T1, PDGF (Homo sapiens, UniProt P01127); test: Cellular IC50 of anti-PDGF aptamer; assay type: cell-based
T1 sequence (P01127 82-190 limits assumed): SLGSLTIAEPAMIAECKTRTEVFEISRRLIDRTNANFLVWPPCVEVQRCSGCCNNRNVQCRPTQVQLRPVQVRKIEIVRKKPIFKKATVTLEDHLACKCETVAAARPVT

[6] = Animal models for glomerulonephritis, restenosis, cancer and pulmonary hypertension; assay type: in vivo
[7] = biological target: rat PDGF (Rattus norvegicus, UniProt Q05028); test: Rat PDGF binding; conditions: FIG. 14A
Sequence of rat PDGF (Q05028 74-182 limits assumed): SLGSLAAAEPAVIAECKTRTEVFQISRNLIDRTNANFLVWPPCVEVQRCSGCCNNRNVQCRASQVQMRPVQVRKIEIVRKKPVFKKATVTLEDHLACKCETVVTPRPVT

[8] = system: retinal pigmented epithelial (RPE) cells; test: RPE cell migration with PDGF; assay type: cell-based; conditions: 100 ng/ml PDGF
Text: The graphs presented in FIG. 15E and 15F show the increasing effect of PDGF concentration on RPE cell migration.

[9] = mouse, in vivo; for AUC / MRT / tmax / t½: 10 mg/kg
[10] = rabbit, in vivo; remark: listed apart in the source
Protocol: Studies were performed in the Dutch-belted rabbit model using […]. Aptamers were administered at a dose level of 1.0 mg/eye, bilaterally via […] intravitreal injection. Samples from the aqueous humor, vitreous humor and plasma were taken before administration of the aptamer and a 0.25 h, 6 h, 24 h, 72 h, 7d, […], and 21d. FIGS. 22A, 22B and 22C show the vitreous humor and/or plasma concentration of each aptamer through 25 days post administration.
The results shown in FIG. 22A were obtained using noncompartmental (NCA) analysis. The volume of rabbit vitreous humor was approximately 1.0-1.5 ml.

[11] = biological target: PDGF AA isoform (Homo sapiens, UniProt P04085); test: PDGF AA isoform binding; conditions: FIG. 13A
[12] = biological target: T1, PDGF; conditions: iv

Sequence of PDGF AB and BB (P01127 82-190 limits assumed): as the sequence (P01127 82-190 limits assumed) above

Substance: 5′-[PEG40K]-NH2-dCdAdGdGdCfUdAfCmG-PEG-dCdGTdAmGdAmGdCdAfUfCmA-PEG-TdGdATfCfCfUmG-3T-3′ [ARC127]
- ability to block PDGF-induced 3T3 cell proliferation [1]: comparable to the ability of an anti-PDGF antibody
- recognition of BB and AB isoforms of PDGF ([2]; FIGS. 13A and 13B): recognizes the BB and AB isoforms of PDGF
- Kd ([2]; anti-PDGF aptamer, isoform not stated, read-out: dissociation constant (Kd)): 0.1 nM
- Kd ([2]; read-out: Kd, PDGF AB and BB): 0.1 nM
- half life (intravitreal) [3]: 92.9 h
- systemic half life [4]: 6 to 12 h
- IC50 [5]: 2 nM
- efficacy in animal models [6]: efficacy in the animal models for glomerulonephritis, restenosis, cancer and pulmonary hypertension
- affinity for human and rat PDGFs [7]: equivalent affinity
- blocking of RPE cell migration [8]: specifically blocks migration of retinal pigmented epithelial (RPE) cells
- bioavailability ([9]; ip): 62.5%
- AUC ([9]; ip): 143.6055 µM·h
- MRT ([9]; ip): 11.23 h
- tmax ([9]; ip): 8 h
- t½ ([9]; ip): 7.86 h
- AUC ([9]; iv): 229.6868 µM·h
- MRT ([9]; iv): 6.57 h
- tmax ([9]; iv): 2 h
- t½ ([9]; iv): 8.60 h
- bioavailability ([9]; sc): 24.0%
- AUC ([9]; sc): 55.0309 µM·h
- MRT ([9]; sc): 16.63 h
- tmax ([9]; sc): 8 h
- t½ ([9]; sc): 9.18 h
- Cl [10]: 0.29 mL?d^−1
- Cmax [10]: ~100 µM
- Vss [10]: 1.42 mL
- half life in the vitreous humor [10]: 84 h
- t1/2 [10]: 92.9 h
- tmax [10]: 0.25 h
- recognition of AA isoform of PDGF [11]: not the AA isoform alone
- duration of measurable activity in vivo [12]: 48 h

From US20040253243A1, “Aptamer therapeutics useful in ocular pharmacotherapy” (priority 2003, published 2004)
